Results as given in patent publication US20170121315A1, “HETEROBICYCLICALLY SUBSTITUTED 4-OXOBUTANE ACID DERIVATIVES AND USE THEREOF” (priority 2014, published 2017).

Assays:
Assay type in all cases: biochemical
MMP-14 = target: T1, MMP-14 (Homo sapiens, UniProt P50281); assay: In vitro MMP-14 inhibition test; details: human MMP-14
T1 construct: purchased R&D Systems 918-MP
How it was run: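 Recombinant MMP-14, furin-activated, at e.g. 0.5 nM final in 50 mM Tris/HCl pH 7.5, 10 mM CaCl2, 150 mM NaCl, 0.05% Brij-35. Started with quenched Mca-Lys-Pro-Leu-Gly-Leu-Dpa(Dnp)-Ala-Arg-NH2 (e.g. 5 μM final); fluorescence (ex 320/em 410 nm) followed e.g. 120 min at 32 °C. IC50 at 50% signal.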

MMP-3 = target: T2, MMP-3 (Homo sapiens, UniProt P08254); assay: In vitro MMP-3 inhibition test; details: human MMP-3
T2 construct: purchased R&D Systems 513-MP
How it was run: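 APMA-activated recombinant MMP-3 (e.g. 2 nM final) with compound in Tris/HCl pH 7.5, CaCl2, NaCl, Brij-35; reaction started with quenched Mca/Dnp peptide substrate (e.g. 10 μM final). Fluorescence (ex 320/em 410 nm) followed e.g. 120 min at 32 °C; IC50 is concentration giving 50% signal.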

MMP-9 = target: T3, MMP-9 (Homo sapiens, UniProt P14780); assay: In vitro MMP-9 inhibition test; details: human MMP-9
T3 construct: purchased R&D Systems 911-MP
How it was run: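 Recombinant MMP-9, APMA-activated, at ~0.1 nM final in 50 mM Tris/HCl pH 7.5, 10 mM CaCl2, 150 mM NaCl, 0.05% Brij-35, with compound in DMSO (e.g. 1 nM–30 μM). Reaction started with 10 μM Mca-PLGL-Dpa(Dnp)-AR-NH2, and fluorescence (ex 320/em 410 nm) was followed e.g. 120 min at 32 °C. IC50 is the concentration giving 50% signal.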

MMP-1 = target: T4, MMP-1 (Homo sapiens, UniProt P03956); assay: In vitro MMP-1 inhibition test; details: human MMP-1
T4 construct: purchased R&D Systems 901-MP
T4 sequence (P03956 100-469): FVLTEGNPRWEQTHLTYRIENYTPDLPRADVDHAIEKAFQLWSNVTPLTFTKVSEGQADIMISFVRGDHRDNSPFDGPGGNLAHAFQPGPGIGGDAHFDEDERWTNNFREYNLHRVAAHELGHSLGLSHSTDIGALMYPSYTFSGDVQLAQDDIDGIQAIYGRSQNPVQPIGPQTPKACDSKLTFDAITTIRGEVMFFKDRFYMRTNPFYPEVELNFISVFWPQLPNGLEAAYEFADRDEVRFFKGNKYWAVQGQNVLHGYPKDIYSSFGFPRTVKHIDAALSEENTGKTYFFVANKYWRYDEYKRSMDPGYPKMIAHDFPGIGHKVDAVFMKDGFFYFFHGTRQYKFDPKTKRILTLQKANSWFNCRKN
How it was run: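 Recombinant enzyme was APMA-activated and used at e.g. 2 nM final in 50 mM Tris/HCl pH 7.5, 10 mM CaCl2, 150 mM NaCl, 0.05% Brij-35. Reaction was started with quenched Mca-Pro-Leu-Gly-Leu-Dpa(Dnp)-Ala-Arg-NH2 (e.g. 10 μM final), and fluorescence (ex 320/em 410 nm) was followed e.g. over 120 min at 32 °C. IC50 is the concentration giving 50% signal.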

T2 sequence (P08254 100-477): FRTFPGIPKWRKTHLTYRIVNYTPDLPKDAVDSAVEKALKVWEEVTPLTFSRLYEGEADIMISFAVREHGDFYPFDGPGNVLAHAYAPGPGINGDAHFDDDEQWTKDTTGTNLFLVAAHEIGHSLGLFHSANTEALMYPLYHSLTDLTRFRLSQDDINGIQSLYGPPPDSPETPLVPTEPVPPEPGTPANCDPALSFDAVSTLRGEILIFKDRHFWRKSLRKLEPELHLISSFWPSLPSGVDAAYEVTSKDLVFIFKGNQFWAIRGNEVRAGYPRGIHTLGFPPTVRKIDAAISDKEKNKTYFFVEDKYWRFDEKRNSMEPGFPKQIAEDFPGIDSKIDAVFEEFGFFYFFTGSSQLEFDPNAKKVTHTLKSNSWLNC
T3 sequence (P14780 107-707 limits assumed): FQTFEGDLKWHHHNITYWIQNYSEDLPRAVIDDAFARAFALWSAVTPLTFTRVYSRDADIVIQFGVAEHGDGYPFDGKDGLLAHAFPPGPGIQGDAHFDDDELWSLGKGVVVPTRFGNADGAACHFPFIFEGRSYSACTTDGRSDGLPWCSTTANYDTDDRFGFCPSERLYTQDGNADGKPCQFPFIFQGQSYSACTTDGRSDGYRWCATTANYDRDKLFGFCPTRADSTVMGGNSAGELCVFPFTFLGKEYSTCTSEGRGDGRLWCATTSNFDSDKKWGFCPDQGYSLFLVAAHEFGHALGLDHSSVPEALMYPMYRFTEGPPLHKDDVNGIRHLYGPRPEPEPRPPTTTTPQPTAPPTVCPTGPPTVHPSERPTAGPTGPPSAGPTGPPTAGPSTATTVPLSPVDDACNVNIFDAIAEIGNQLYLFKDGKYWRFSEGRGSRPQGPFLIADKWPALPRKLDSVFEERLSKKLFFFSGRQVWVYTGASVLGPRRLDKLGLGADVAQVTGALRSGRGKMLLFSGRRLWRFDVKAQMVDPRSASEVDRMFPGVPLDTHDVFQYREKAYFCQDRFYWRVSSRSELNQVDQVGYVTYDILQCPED

- IC50 (MMP-14): 2600 nM
- IC50 (MMP-3): 2200 nM
- IC50 (MMP-9): 680 nM
- IC50 (MMP-1): > 40000 nM
Compound: O=C(O)[C@@H]1[C@@H](Cn2nnc3ccc(C(F)(F)F)cc3c2=O)CC[C@H]1C(=O)c1cc2cc(OCCc3ccccc3)ccc2o1 (single isomer, unassigned; enantiomer 2) [Example 159, (+)-(1RS,2SR,5RS)-2-{[4-Oxo-6-(trifluoromethyl)-1,2,3-benzotriazin-3(4H)-yl]methyl}-5-{[5-(2-phenylethoxy)-1-benzofur-2-yl]carbonyl}cyclopentanecarboxylic acid (enantiomer 2)]
